Usually AC50 stands for the midpoint of the concentration-response curve, whichever way the signal moves.

AC50 data for 32 molecules are collected here from PubChem BioAssay AID624285 (Broad Institute, 2012).

Activity calls are given as the source filed them.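 How the source made its calls: active means signal-decreasing dose-response curve whose fitted half-maximal concentration is at or below twice the highest valid tested dose; inconclusive means flat fit at 30 to 70% signal loss, or poor fit; inactive means the rest.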

The test system of this assay is NIH3T3/HeLa viability, CellTiter-Glo ATP luminescence, 24 h. Description: cytotoxicity in mammalian cells, dose response, cytotoxicity control for PDI inhibitor project, cell-based, 24 h, luminescence, cherry-picked samples (AID 624285).
For `CC(=O)OC1CCC2C3CCC4=C(CC(F)C(=O)C4)C3CCC12C` (configuration not stated), the AC50 was > 70 µM (inactive).
The same measure for `O=C(CCS(=O)(=O)c1ccccc1)N(CCCN1CCOCC1)c1nc2ccccc2s1`: 14.2 µM.
The same measure for `CCOC(=O)c1c(CNCCN(CC)CC)n(C)c2cc(Br)c(OC)cc12`: > 70 µM (inactive); for `Oc1cccc(-c2nc3c4c(ncn3n2)-c2ccccc2CC42CCCC2)c1`: 14.3 µM; for `COc1ccc(C2c3ccc(O)cc3Oc3ncn4nc(-c5cccnc5)nc4c32)cc1OC` (configuration not stated): 30.6 µM.
The same measure for `CCCN(CCC)S(=O)(=O)c1ccc(C(=O)Nc2nnc(COC)o2)cc1`: > 70 µM (inactive); for `COc1ccc(-c2nnc3ccc(SCC(=O)Nc4nc5ccccc5s4)nn23)cc1OC`: > 70 µM (inactive).
Take `CCOC(=O)c1c(CN(C)C)n(-c2ccccc2)c2cc(Br)c(O)cc12`: the AC50 is > 70 µM (inactive).
The same measure for `CCc1cc(OCCCCNCc2ccccc2)ccc1Cl`: 21.5 µM.
The same measure for `COC1/C=C/C=C(\C)Cc2cc(O)c(Cl)c(c2)N(C)C(=O)CC(OC(=O)C(C)C)C2(C)OC2C(C)C2CC1(O)NC(=O)O2` (configuration not stated): > 70 µM (inactive); for `CC[C@]12c3[nH]c4cc(-c5ccco5)ccc4c3CCN1C(=O)[C@@H](CC(=O)NCc1ccc(OC)c(OC)c1)C[C@@H]2C(=O)N1CCN(C(=O)c2ccco2)CC1`: > 70 µM (inactive).
The same measure for `CCOc1cc(N2CCOCC2)c(OCC)cc1NC(=O)Cc1ccccc1OC`: 39.5 µM; for `CC(=O)Oc1ccc(C2OC(=O)c3ccccc3N2C(C)=O)cc1` (configuration not stated): > 70 µM (inactive).
Turning to `O=C(COC(=O)c1ccccc1NC(=O)c1ccco1)NCCC1=CCCCC1`, the AC50 was > 70 µM (inactive).
The same measure for `COc1cc2cc(C(=O)N3CC(COS(C)(=O)=O)c4ccc(O)cc43)[nH]c2c(OC)c1OC` (configuration not stated): 0.0396 µM; for `CN(C)CCCN(C(=O)c1ccc(S(=O)(=O)N2CCc3ccccc32)cc1)c1nc2c(Cl)cccc2s1`: 16.5 µM.
The same measure for `C=CC[C@H](CC(=O)N(CCO)Cc1ccccc1)C(=O)N[C@H](COC(=O)[C@@H](CC=C)Cc1ccc(F)cc1)Cc1c[nH]c2ccccc12`: 30.8 µM; for `COCCN(CC(=O)Nc1ccccc1C(F)(F)F)C(=O)/C=C/c1cc(Cl)c2c(c1)OCCO2`: > 70 µM (inactive).
Regarding `CCOC(=O)c1c(CN2CCN(C)CC2)n(C)c2cc(Br)c(OC)cc12`, the AC50 was 22.2 µM.
For `Cc1ccc2c(c1)Oc1ccc(NC(=O)CCl)cc1C(=O)N2`, the AC50 is 8.51 µM.
The same measure for `COc1ccc(C(=O)c2c(C)c3cc(C)ccc3n2CC(O)CN2CCOCC2)cc1` (configuration not stated): > 70 µM (inactive).
The same measure for `CC1(c2ccc3ccccc3c2)NC(=O)N(CC(=O)Nc2cccc(S(=O)(=O)N3CCOCC3)c2)C1=O` (configuration not stated): > 70 µM (inactive); for `CCOC(=O)C1=C(c2ccccc2)N=c2s/c(=C\c3cccc(O)c3)c(=O)n2C1c1cccs1` (configuration not stated): 23 µM.
For the molecule `O=C(Nc1nc2ccccc2s1)c1cccc(S(=O)(=O)N2CCc3ccccc32)c1`, the AC50 was > 70 µM (inactive).
The same measure for `COc1ccc(C2c3ccc(O)cc3Oc3ncn(CCN4CCOCC4)c(=N)c32)cc1OC` (configuration not stated): > 70 µM (inactive); for `CCOC(=O)c1c(CN2CCOCC2)n(-c2ccccc2)c2ccc(O)cc12`: > 70 µM (inactive).
The same measure for `O=C(Nc1ccccc1N1CCCC1)c1cc(Cl)ccc1Cl`: > 70 µM (inactive); for `CCOc1cc(N2CCOCC2)c(OCC)cc1NC(=O)COC(=O)[C@H](Cc1c[nH]c2ccccc12)NC(C)=O`: > 70 µM (inactive).
Consider `O=C(Nc1ccc(Br)cc1F)c1cccnc1`, for which the AC50 is > 70 µM (inactive).
With `Nc1ccc(C(=O)NN2C(=O)[C@H](Cl)C2c2ccc(Cl)cc2)cc1` (some centres not stated), the concentration at half-maximal activity (AC50) was 6.04 µM.
The same measure for `O=C(NC(Cc1c[nH]c2ccccc12)C(=O)N/N=C/c1cccnc1)c1cccs1` (configuration not stated): > 70 µM (inactive); for `C[C@@H]1CN([C@H](C)CO)C(=O)c2cccc(NS(C)(=O)=O)c2O[C@@H]1CN(C)Cc1ccc(Oc2ccccc2)cc1`: > 70 µM (inactive).
